From paper PMC6349869, “The palladacycle complex AJ-5 induces apoptotic cell death while reducing autophagic flux in rhabdomyosarcoma cells” (Cell Death Discovery, 2019)

Legend:
[1] = test system: RMS cell lines including RD and RH30 cells; parameters: method as in PMID 10917549, PMID 11742497; conditions: after 4–5 days of treatment, range of RMS cell lines including RD and RH30; cited from earlier work
RH30 and RD cells = assay: IC50 of doxorubicin established in the cell lines tested; format: cell-based; conditions: Homo sapiens

| IC50 (RH30 and RD cells) | Structure (SMILES) | IC50 [1] |
| --- | --- | --- |
|  | N.N.[Cl][Pt][Cl] [Cisplatin, cisplatin] | > 500 nM |
| 500 nM | COc1cccc2c1C(=O)c1c(O)c3c(c(O)c1C2=O)C[C@@](O)(C(=O)CO)C[C@@H]3O[C@H]1C[C@H](N)[C@H](O)[C@H](C)O1 [Doxorubicin, doxorubicin] |  |
